According to US5688773A, “Method of selectively destroying neoplastic cells” (priority 1994, dated 1997):

What was measured:
CNEO-1 cells = assay: Cyclophosphamide dose-response assay; format: cell-based; settings: Rattus norvegicus, C6 glioma; up to 1 mM CPA; read-out: cells that survived incubation
Description: Two days later CPA was added to final concentrations of 0-100 μM. Five days after plating, the monolayers were rinsed twice with Hank's buffered saline (GIBCO) to remove dead cells. Monolayers were dispersed using trypsin-EDTA (GIBCO), and cell numbers were determined using a Coulter counter (Coulter Electronics Inc.).

[1] = test system: mixed culture of 9L and 9L-ZP cells; assay: Cytotoxicity toward mixed cultures; format: cell-based, rat; settings: Rattus norvegicus, 120 h; equal numbers of 9L and 9L-ZP; 1 mM cyclophosphamide, 5 days; read-out: total cell population eradicated
Description: FIG. 28 is a bar graph depicting the cytotoxicity of oxazaphosphorines toward mixed cultures of 9L and 9L-ZP cells. Equal numbers of parental 9L cells were mixed with 9L-ZP cells (total initial cell number=1×10^5 /30 mm tissue culture dish). […] Cell numbers were determined 5 days after beginning drug treatment. Data (mean ±range of duplicates) are expressed as growth ratio (%) relative to drug-free controls.
To test for drug sensitivity, 1×10^5 cells were plated in 30-mm tissue culture plates (Falcon 3046) in duplicate. Drugs were added 18-24 hours after seeding. Cells were allowed to grow for times ranging up to 5 days after drug treatment, and the final cell number was then determined. Cells were rinsed with phosphate buffered saline or Hank's buffered saline, dispersed using trypsin-EDTA (GIBCO/BRL, Inc.), and then counted with a hemocytometer. Results are expressed as a growth ratio, i.e., the number of cells in plates containing drug as a percentage of the corresponding drug-free controls (mean±range of duplicate determinations).

[2] = test system: C6 cells exposed to CM from C6; assay: C6 colony formation after conditioned medium from drug-exposed cells; format: cell-based, rat; settings: for Colony numbers: colonies six days later
C6-P450 cells = assay: Cell proliferation assay
C6BAG and C6VIK cells = assay: Ganciclovir treatment of combined subcutaneous tumors; format: in vivo, nude mice; settings: 14 day course, 25 mg/kg twice a day intraperitoneally
Description: Sequential injections of 10^5 C6BAG cells followed immediately by 10^6 C6BU1 cells, C6VIK cells, or C6VIKWT cells at the same injection site, were carried out as above using 20 animals for each combination. After the tumors had reached 1 cm in diameter, ganciclovir treatment was begun for 14 days, 25 mg/kg twice a day intraperitoneally in half of each group, with the other half receiving PBS intraperitoneally as a control. Tumor volume was assessed as the percentage increase over the volume at the beginning of treatment through 17 days.

[3] = test system: C6BAG cells co-cultured with C6VIKWT cells; assay: Delayed co-culture, ganciclovir sensitivity of recipient colonies; format: cell-based, rat
Description: (§1) Donor C6VIK or C6VIKWT cells were then added to the cultures at a ratio of 1:2 (5×10^4 recipient cells: 10^5 donor cells). Control cultures consisted of C6BAG or C6BBAG cells alone, or C6BA6 or C6BBAG cells co-plated with "donor" C6BU1 or C6BWT cells, after delay, as above. After 10 days, ganciclovir was added at varying concentrations (0-300 μM) and cells were incubated for another 9-12 days with the drug. Cells were then fixed with 0.5% glutaraldehyde and stained histochemically for beta-galactosidase activity, as described (Price et al., Proc. Natl. Acad. Sci. USA 84:1141-1145 (1987)), and colonies were counted.

C6BAG and C6VIKWT cells = assay: Ganciclovir treatment of combined subcutaneous tumors; format: in vivo, nude mice
Description: Sequential injections of 10^5 C6BAG cells followed immediately by 10^6 C6BU1 cells, C6VIK cells, or C6VIKWT cells at the same injection site, were carried out as above using 20 animals for each combination. […] Tumor volume was assessed as the percentage increase over the volume at the beginning of treatment through 17 days.

C6VIK cells = settings: subcutaneous, nude mice; cited from earlier work
parental C6 cells = settings: subcutaneous, nude mice; cited from earlier work
[4] = test system: C6BAG cells co-cultured with C6VIKWT cells; assay: Simultaneous co-culture, ganciclovir sensitivity of recipient colonies; format: cell-based, rat; settings: 100 μM ganciclovir; donor:recipient ratios of 0.1 and 1
Description: For simultaneous co-culture experiments, 10^3 recipient cells, C6BAG or C6BBAG were plated together with 10^5 C6VIK or C6VIKWT donor cells, in duplicate. Controls were C6BAG or C6BBAG cells co-plated with C6BU1 cells at a similar ratio (1:100). After seven days, ganciclovir was added at varying concentrations (0 to 300 μM) and culture was processed as above. To assess the effects of the ratio of the donor cells to recipient cells, simultaneous co-culture experiments were also done varying the ratio of the donor cell, C6VIKWT, to the recipient cell, C6BAG, from 0.1 to 100.

[5] = test system: C6BBAG cells co-cultured with C6VIKWT cells; assay: Delayed co-culture, ganciclovir sensitivity of recipient colonies; format: cell-based; settings: Rattus norvegicus, ratio 1:2, read-out: ganciclovir concentration at which 50% of cells grew
Description: as §1

C6VIKWT cells = settings: colony survival; drug from day 7 for 9-12 days
Description: To measure the ganciclovir sensitivity of colony formation, cells were plated in duplicate at a density of 500 cells per 25 cm^2 culture flask. Seven days later, ganciclovir was added at various concentrations (0, 0.1, 0.5, 1, 10, 50, 100, 300 μM) in quadruplicate and incubation was for 9-12 days, with medium changes every 3-5 days. Cells were then fixed with 100% methanol, and stained with Giemsa (Freshney, R. I., "Culture of Animal Cells," in: A Manual of Basic Techniques, 2d ed., New York, Alan R. Liss, Inc., pp. 170-171 (1987)), and colonies ≥2 mm in diameter were counted.

`O=P1(N(CCCl)CCCl)NCCCO1` (centres unmarked) [cyclophosphamide] showed a viability at 1000 µM (CNEO-1 cells) of at least 80%, a cytotoxicity at 1000 µM [1] of about 80% and a Colony numbers ([2]; CM after 0.5 h of 0.5 mM CPA) of 247 ± 3. For the same molecule, the Colony numbers ([2]; CM after 1.5 h of 0.5 mM CPA) was 256 ± 7, the Colony numbers ([2]; CM after 3 h of 0.5 mM CPA) was 257 ± 1 and the Colony numbers ([2]; CM after 6 h of 0.5 mM CPA) was 260 ± 4. It also gave a Colony numbers ([2]; CM after 10 h of 0.5 mM CPA) of 245 ± 5, a Colony numbers ([2]; CM after 24 h of 0.5 mM CPA) of 255 ± 14 and a Colony numbers ([2]; CM after 32 h of 0.5 mM CPA) of 240 ± 2. It also gave a Colony numbers ([2]; CM after 48 h of 0.5 mM CPA) of 245 ± 6, a Colony numbers ([2]; CM after 72 h of 0.5 mM CPA) of 260 ± 5 and a Colony numbers ([2]; CM after 96 h of 0.5 mM CPA) of 260 ± 9. The “Secretion effect, C6 colony number” value ([2]; Table V panel C, CM from treated C6 cultures) was 271±14.2, the Growth inhibition (C6-P450 cells; 0.5 mM CPA, 10 days) was “complete growth inhibition” and the “Effect on cell proliferation” value (C6-P450 cells; 0.5 mM, four days) was “complete inhibition of cell proliferation”. For the same molecule, the “Cell proliferation assay, number of cells” value (C6-P450 cells; Table V panel A, 0.5 mM, four days) was 1.15±0.11 ×10^6.
For `Nc1nc(O)c2ncn(COC(CO)CO)c2n1` [ganciclovir], the “Tumor volume compared to C6BAG and C6BU1 tumors” value (C6BAG and C6VIK cells) was “significant decrease in the tumor volume”, the IC50 ([3]; Rattus norvegicus, ratio 1:2, read-out: ganciclovir concentration at which 50% of cells grew) was 3 µM and the “Survival of beta-galactosidase-positive recipient colonies” value ([3]; ratio 1:2) was “almost complete ablation of the recipient cells”. The “Tumor size compared to C6BAG and C6BU1 tumors” value (C6BAG and C6VIKWT cells; 14 day course, 25 mg/kg twice a day intraperitoneally) was “even greater decrease in the size”, the Tumor regression (C6BAG and C6VIKWT cells; C6VIK-WT and C6BAG inoculated simultaneously, GCV treatment) was “regression of tumors in most nude mice” and the Tumor growth (C6VIK cells) was “inhibited tumor growth”. For the same molecule, the Tumor growth (parental C6 cells) was “had no effect on tumor growth”, the “ganciclovir sensitivity compared to C6BAG cells alone” value [4] was “no significant difference” and the IC50 [5] was 30 µM. The “fold more sensitive than parental line C6VIK at 50% surviving colonies” value (C6VIKWT cells) was 300 fold.
